Assay results taken from patent publication US20110104052A1, “METHODS OF SYNTHESIS AND USE OF CHEMOSPHERES” (THE JOHNS HOPKINS UNIVERSITY, priority 2007, published 2011).

What was measured:
[1] = Loading of doxorubicin into liposome polymer matrices; assay type: physicochemical; conditions: polymer/lipid:drug ratio approximately at least 50:1, mol/mol
Protocol: The spheres that were subjected to ultrafiltration or column washes were stored for a variable amount of time in a minimal amount of 3 M sucrose, 750 mM Histidine HCl to maintain hydration at 20° C. and 5° C. Following storage the loading efficiency of doxorubicin into the spheres was assessed (table 1). For drug loading a procedure that could easily be implement in the pharmacy was employed. Specifically a water bath or dry heat block was allowed to equilibrate at 58° C. (55°-60° C.). For each 1 mL packed volume of microspheres, 50 mg of lyophilized doxorubicin (for storage lactose and parahydroxybenzoate may be added) in a solution of 8 mL was prepared. This solution was then added to the equilibrated heating source for 10 min. Next a 2 mL concentrated solution of sodium carbonate was injected into the microsphere solution. The 2 mL of microspheres and 8 mL of doxorubicin were then combined creating a solution with pH of 7 (this step should be done within 2 minutes of adding sodium carbonate to the microspheres). The mixture should be shaken vigorously and allowed to sit for at least 10 minutes in the heat block or water bath and then brought to room temperature. After this period the spheres can be stored up to 10 hours at 25° C. and for 7 days at 2° C.-8° C. […]

[2] = tested on: tumors growing within the liver; conditions: rabbit model for liver cancer; cited from earlier work

added doxorubicin that becomes vesicle entrapped as doxorubicin-citrate [1] | Structure (SMILES) | effect of bolus injection on non-tumor tissue [2]
greater than 90% | COc1cccc2c1C(=O)c1c(O)c3c(c(O)c1C2=O)C[C@@](O)(C(=O)CO)C[C@@H]3O[C@H]1C[C@H](N)[C@H](O)[C@H](C)O1 [doxorubicin] | –
– | O=C(O)C(=O)CBr [3-bromopyruvate] | damages surrounding liver tissue
